Experiment [1] relates to Pfeiffer lymphoma cell line which overexpresses MCL-1 and A1. Briefly: killing of Pfeiffer lymphoma cell line. It is filed as cell-based.
Experiment [2] deals with Bax−/−Bak−/− mouse embryo fibroblasts reconstituted with BAXK21E. Kind of experiment: apoptosis of BAXK21E-reconstituted DKO MEFs (annexin-V binding). As to conditions: compared with wild-type BAX. It counts as cell-based. The text has this:
(§1) To determine if this single point mutation within the novel BAX binding site impacted the capacity to activate BAX in a cellular context, we retrovirally reconstituted Bax^−/−Bak^−/− mouse embryo fibroblasts (DKO MEFs) with either wild type or BAXK21E and monitored apoptosis induction in response to BIM SAHB. […] This decrease in BAXK21E-mediated apoptosis correlates with impaired activation of […] by BIM SAHB in both oligomerization and cytochrome c release assays (FIG. 15a, 15b).
To probe the broader physiologic impact of the novel BAX activation site, we examined the apoptotic response of DKO MEFs reconstituted with BAX and BAXK21E to staurosporine (STS), a general stimulus known to operate through endogenous BH3-only proteins, including BIM. K21E mutagenesis impaired STS-induced apoptosis, as monitored by annexin V binding over time (FIG. 15d). The reduced activity of BAXK21E was also reflected by impaired cytochrome c release, as detected by subcellular fractionation Western analysis and indirect immunofluorescence. The blunted response of BAXK21E-reconstituted DKO MEFs to STS is uniformly consistent with impaired activation of BAXK21E by BIM SAHB in oligomerization (FIG. 15a), cytochrome c release (FIG. 15b), and cell-based apoptosis assays (FIG. 15c). […]

In experiment [3] the target is T1, BCL-2-related ovarian killer (BOK) (Homo sapiens, UniProt Q9UMX3).
T1 sequence (Q9UMX3 1-212): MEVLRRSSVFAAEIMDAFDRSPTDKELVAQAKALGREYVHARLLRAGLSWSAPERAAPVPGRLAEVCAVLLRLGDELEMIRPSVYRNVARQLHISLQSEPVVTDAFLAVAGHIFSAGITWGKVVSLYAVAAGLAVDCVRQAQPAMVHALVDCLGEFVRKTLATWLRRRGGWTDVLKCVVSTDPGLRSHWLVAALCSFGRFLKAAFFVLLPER
Kind of experiment: binding of SAHB ligands to BOK.

In experiment [4] the test system is MCL-1 overexpressing or otherwise chemoresistant cancer cells. Briefly: reactivating apoptosis of MCL-1 overexpressing or chemoresistant cancer cells. It counts as cell-based. The text has this: Many cancer cells and their relapsed/chemoresistant variants achieve cellular immortality by massively overexpressing anti-apoptotic members of the BCL-2 family. Using BH3 mimetics and small molecules, anti-apoptotic inhibition is one mode of overcoming apoptotic blockade. However, when BH3 mimetics or small molecules have a specificity profile that cannot target a specific anti-apoptotic blockade, such as MCL-1 overexpression (Van Delft et al, Cancer Cell. 2006 Nov.; 10(5):389-99; Konopleva et al, Cancer Cell. 2006 Nov.; 10(5):375-88; Deng et al Cancer Cell. 2007 Aug.; 12(2):171-85), direct BAX modulation can circumvent, or synergize with, such apoptotic blockade for therapeutic benefit. […] Therefore, cancers or other diseased cells that either overexpress anti-apoptotic proteins such as MCL-1 and A1, or cancers or diseased cells that specifically down-regulate activator BH3-only proteins, like BIM, such as in Mantle Cell lymphoma (Tagawa et al Oncogene. 2005 Feb. 17; 24(8):1348-58; Mestre-Escorihuela, Blood. 2007 Jan. 1; 109(1):271-80) and cf. with mouse model of BIM-deletion, are ideally suited for BIM SAHB, or derivatives and mimetics thereof, to reactivate apoptosis through direct engagement of the novel BAX activation site and thereby induce apoptosis for therapeutic purposes and irrespective of the aforementioned apoptotic blockades.

Experiment [5] concerns Bax−/−Bak−/− mouse embryo fibroblasts reconstituted with wild type BAX. Briefly: apoptosis of BAX-reconstituted DKO MEFs (annexin-V binding). It is filed as cell-based.
Text: as §1

In the next experiment the target is monomeric BAX (Homo sapiens, UniProt Q07812). Kind of experiment: BAX oligomerization assay (size exclusion chromatography). It counts as biochemical. The following applies: wild-type BAX, room temperature. The text has this:
In contrast to the stable inhibitory interactions of BIM BH3 with anti-apoptotic proteins, the BAX-activating interaction triggers a dynamic continuum of events that includes BAX conformational change and oligomerization. […] In monomeric BAX, the center of the loop weakly associates with residues Ile133 and Met 137 of the α6 helix (Suzuki & Tjandra, Cell 103 (4), 645-654 (2000)). Changes observed in the loop residues can readily be explained by the shift of the loop conformation into an open form upon BIM SAHB binding. Because loop displacement upon ligand engagement may initiate a conformational change of BAX, we investigated whether BIM SAHB binding could directly activate BAX in solution. We monitored both the conversion of BAX from monomer to oligomer by size-exclusion chromatography (SEC) and the exposure of its buried N-terminal residues using the 6A7 antibody, which selectively detects the conformational change associated with BAX activation (Hsu & Youle, The Journal of biological chemistry 272 (21), 13829-13834 (1997)). […] Thus, the transient stability of the BIM SAHB-BAX complex we observe by NMR correlates with the interaction-triggered BAX conformational change and oligomerization that we detect biochemically.
Oligomerization assay: BIM SAHB was added to a 200 μL solution (20 mM Hepes/KOH pH 7.2-7.4, 150 mM KCl) containing monomeric BAX (38 μM) at a ratio of 0.5:1, 1:1, 2:1 and 4:1 BIM SAHB:BAX. The mixtures and a sample of BAX monomer alone were incubated at 22° for 15 minutes and then subjected to analysis by size exclusion chromatography (SEC) using an SD75 column. […] Protein standards (GE Healthcare) were used to calibrate the molecular weights of gel filtration peaks. For time-dependent analysis, BIM SAHB was added to monomeric BAX at a ratio of 1:1, and the mixtures were analyzed by SEC after incubation for 30, 60, and 90 minutes at 22° C. As a baseline for comparison, Bax monomer alone was analyzed at time 0 and the above time points.
(In general: In gel filtration, larger molecules generally elute earlier.)

Another experiment deals with BAX (Homo sapiens, UniProt Q07812). Briefly: liposomal release assay (FITC-dextran). It is filed as biochemical. As to conditions: combination with BAX. The text has this:
(§2) To confirm that the SEC-based detection of BIM SAHB-induced BAX oligomerization reflects functional activation of BAX for its release activity, we performed correlative liposomal and mitochondrial assays. […] Thus, in four distinct in vitro assays that measure ligand-induced BAX activation, BIM SAHB directly and dose-responsively triggered BAX.
Liposomal Release Assay: Another assay that can be used to determine modulation of the BCL-2 family polypeptide is a liposomal release assay that simulates the mitochondria but only includes the essential components for BAX/BAK/BOK-induced release. […] Lipid concentration is determined by measuring vesicular phosphate content (Böttcher, C. J. F. et al. (1961) Anal Chim Acta 24, 203-204). The fluorescence dequenching assay is adapted from previous reports (Kuwana, T. et al. (2002) Cell 111(3), 331-342) (Terrones, O., et al. (2004) J Biol Chem 279(29), 30081-30091). The release of FITC-labeled dextran-10 kD from LUVs is monitored using a FluoroMax-2 spectrofluorometer (SPEX), in a thermostated 1 cm path length quartz cuvette with constant stirring at 37° C. […]

For experiment [6], the system named is BAX-mediated cytochrome c release, BAX/BAK doubly-deficient mouse liver mitochondria. Kind of experiment: mitochondrial cytochrome c release assay. It is filed as biochemical. As to conditions: Alb-cre pos Bax flox/− Bak−/− mouse liver mitochondria plus BAX.
Text: as §2
Mitochondrial Release Assay: In order to test activation/inhibition of a BCL-2 family polypeptide interactions on mitochondrial apoptosis induction, a cytochrome c release assay is used that employs mouse liver mitochondria from Bak^−/− mice or Alb-cre^posBax^flox/−Bak^−/− mice, added recombinant BCL-2 family polypeptide, e.g., BAX, BAK, or BOK (50 nM) with or without increasing doses of SAHBs (50-500 nM), and an ELISA-based read-out of cytochrome c. Negative controls include recombinant protein alone, compounds alone, vehicle treatment, point mutant SAHBs, and blockade using anti-apoptotic proteins, such as BCL-XL ΔC.

Ends that are not written are not given here.

Chain of monomeric BAX (Q07812 whole entry): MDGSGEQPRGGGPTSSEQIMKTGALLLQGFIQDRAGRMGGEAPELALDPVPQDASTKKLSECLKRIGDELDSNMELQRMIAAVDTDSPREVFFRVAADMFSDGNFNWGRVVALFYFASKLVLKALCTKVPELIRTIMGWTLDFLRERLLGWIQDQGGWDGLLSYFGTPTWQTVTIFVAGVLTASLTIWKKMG
Chain of BAX (Q07812 whole entry): as above

With `CN(C)CC[C@H](CSc1ccccc1)Nc1ccc(S(=O)(=O)NC(=O)c2ccc(N3CCN(Cc4ccccc4-c4ccc(Cl)cc4)CC3)cc2)cc1[N+](=O)[O-]` [ABT-737, reference compound], the “cell killing / sensitivity” value in experiment [1] is “resistant”.
As to `CN[C@@H]1C[C@H]2O[C@@](C)([C@@H]1OC)n1c3ccccc3c3c4c(c5c6ccccc6n2c5c31)C(=O)NC4` [staurosporine, reference compound], the “apoptosis induction, annexin-V binding” value in experiment [2] is “impaired”.
In the case of “BID SAHB: hydrocarbon-stapled BID BH3 polypeptide (FIG. 9, SEQ ID NO:4) (ESQEDIIRNIARHLAQVGDEMDRSI; staple (positions not given here); also: hydrocarbon staple, positions not given here; listed as Homo sapiens)”, the “binding to BOK” value in experiment [3] is “bound”. In addition, in experiment [4], the “potency in reactivating apoptosis relative to ABT-737 or BAD SAHB” value was “more potent”.
As for “BIM SAHB R153D: BIM SAHB with reverse-polarity point mutation R153D at the BAX interaction surface (FIG. 13a) (EIWIAQELDRIGDEFNAYYARR; staple (positions not given here); also: hydrocarbon staple, positions not given here)”, the “apoptosis induction, annexin-V binding” value in experiment [5] and in experiment [2] was “abolished” each time. Also, the “BAX oligomerization (monomer to oligomer, SEC)” value (from here on “BAX oligomerization”) in the experiment with monomeric BAX is reported as “abrogated”. For the same compound, the “liposomal release of entrapped FITC-dextran” value in the experiment with BAX is “abrogation of activity”. The “BAX-mediated cytochrome c release” value in experiment [6] is “abrogated”.
With “D157R: BIM SAHB with reverse-polarity point mutation D157R (FIG. 13a) (EIWIAQELRRIGREFNAYYARR; staple (positions not given here); also: hydrocarbon staple, positions not given here)”, in the experiment with monomeric BAX, the “BAX oligomerization” value was “abrogated”. The “BAX-mediated cytochrome c release” value in experiment [6] is on record as “abrogated”.
With “I155E: BIM SAHB with hydrophobic to charged point mutation I155E (FIG. 13a) (EIWIAQELRREGDEFNAYYARR; staple (positions not given here); also: hydrocarbon staple, positions not given here)”, the “BAX oligomerization” value with monomeric BAX was “abrogated”. Also, the “BAX-mediated cytochrome c release” value in experiment [6] is recorded as “abrogated”.

The values are drawn from patent US8921323B2, “Methods and compositions for modulating BCL-2 family polypeptides” (Dana Farber Cancer Institute, Inc., priority 2007, dated 2014).
